According to US20230364079A1, “COMPOUND AS BRAIN-PERMEABLE BTK OR HER2 INHIBITOR, PREPARATION METHOD THEREFOR, AND USE THEREOF” (CHENGDU HYPERWAY PHARMACEUTICALS CO., LTD., priority 2020, published 2023):
pIC50: −log10 of the molar value.

What was measured:
[1] = target: BTK mutation-type C481S kinase (Homo sapiens (Human), UniProt Q06187, C481S); assay: BTK-C481S kinase activity inhibition test in vitro (Caliper EZ Reader); assay type: biochemical
Procedure: In the tests on the activity of inhibiting BTK and HER2 kinase in vitro in the examples of the present disclosure, powder of the compound was dissolved in 100% DMSO to prepare a 10 mM stock solution and stored at-20° C. in the dark. […] In addition, the compounds were subjected to experiments such as liver microsome metabolic stability, rat PK, rat brain penetration rate, and drug efficacy model in the examples of the present disclosure.
Compound powders were dissolved in 100% DMSO to make 10 mM stock solutions, which were stored at -20° C. in the dark.
2: Kinase Reaction Process
(1) Preparation of 1 × Kinase buffer.
(5) After centrifugation at 1000 rpm for 30 seconds, the reaction plate was shaken to mix well and incubated at room temperature for 10 min.
(6) A 5/3-fold final concentration of a mixed solution of ATP and Kinase substrate 2 was prepared with 1 × Kinase buffer.
(7) 15 µL of the mixed solution of ATP and substrate with 5/3-fold final concentration was added to start the reaction.
(8) The 384-well plate was centrifuged at 1000 rpm for 30 seconds, shaken to mix well, and incubated at room temperature for 10 min.
(9) 30 µL of a stop solution was added to stop the kinase reaction, and after centrifugation at 1000 rpm for 30 seconds, the plate was shaken to mix well;
(10) The conversion rate was read with Caliper EZ Reader.
where Conversion%_sample indicates the conversion rate reading of the sample; Conversion%_min is the average reading of the negative control wells, representing the conversion rate reading of the wells without enzyme activity; Conversion%_max is the average reading of the ratio of the positive control wells, representing the conversion rate reading of the wells without compound inhibition.
Dose-Response Curve Fitting
With the log value of the concentration as the X-axis, and the percentage inhibition rate as the Y-axis, the dose-effect curve was fitted using the log(inhibitor) vs. response-Variable slope of the analysis software GraphPad Prism 5, so as to determine the IC50 value of each compound on the enzyme activity.
The calculation formula was: […]

BTK wild-type kinase = BTK wild-type kinase (Homo sapiens (Human), UniProt Q06187); assay: BTK kinase activity inhibition test in vitro (Caliper EZ Reader); assay type: biochemical
Summary of the method: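 Compound (10 mM DMSO stock) preincubated with kinase 10 min at room temperature, then ATP plus kinase substrate 2 added, 10 min reaction at room temperature before stop. Substrate conversion read by Caliper mobility shift; inhibition normalised to no-enzyme and no-compound controls, IC50 by variable-slope log(inhibitor) fit.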

[2] = Liver microsome metabolic stability test, human; assay type: in vitro ADME; details: for half-life: liver microsomes, 0.5 mg/mL protein, read-out: T½
Procedure: (§1) 1: To the sample wells of T0, T5, T10, T20, T30, T60 and NCF60, 10 µL of the test or reference working solution and 80 µL of microsome working solution (hepatic microsome with a protein concentration of 0.5 mg/mL) were added, and to Blank60 well, only the microsome working solution was added. Then samples of the Blank60, T5, T10, T20, T30 and T60 other than T0 and NCF60 were placed in a 37° C. water bath and pre-incubated for about 10 min.
(§2) 2: To the T0 sample well, 300 µL of stop solution (containing 200 ng/mL tolbutamide and 200 ng/mL labetalol in acetonitrile solution) was added first, followed by 10 µL of NADPH regeneration system working solution.
(§3) 3: After the pre-incubation of Blank60, T5, T10, T20, T30 and T60 incubation plates, 10 µL of NADPH regeneration system working solution was added to each sample well to start the reaction, and 10 µL of 100 mM potassium phosphate buffer was added to the NCF60 sample well.
(§4) 4: After incubation for an appropriate time (such as 5, 10, 20, 30 and 60 min), to each test sample well and control well of the Blank60, T5, T10, T20, T30, T60 and NCF60 plates, 300 µL of stop solution was added to terminate the reaction.
(§5) 5: All sample plates were shaken to mix well and centrifuged at 4000 rpm for 20 min, and 100 µL of the supernatant of the test sample or control sample was taken and diluted with 300 µL of pure water for LC-MS/MS analysis.
(§6) 6: Data analysis: T½ and CLint(mic) (µL/min/mg) values were calculated according to the first-order elimination kinetics. The first-order elimination kinetics equation was: […]

[3] = Pharmacokinetic test, oral, SD rats; assay type: in vivo; details: oral 10 mg/kg, plasma; for AUC(0-inf) / Cmax / half-life: rat; for Cmax: read-out: Cmax; for half-life: read-out: T½ (converted)
Summary of the method: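 Male/female status unstated; SD rats (3 per group) dosed orally at 10 mg/kg after overnight fast, refed 4 h post-dose. Plasma from serial blood draws stored at -20° C, protein-precipitated with internal standard solution and quantified by LC-MS/MS.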

[4] = Liver microsome metabolic stability test, rat; assay type: in vitro ADME; details: for half-life: liver microsomes, 0.5 mg/mL protein, read-out: T½
Procedure: as §1, §2, §3, §4, §5, §6

[5] = system: TMD8 mouse subcutaneous xenograft tumor; assay: TMD8 pharmacodynamic model test (mouse subcutaneous xenograft tumor); assay type: in vivo
Procedure: Test Example 7: TMD8 Pharmacodynamic Model Test
Human diffuse large B-cell lymphoma TMD8 cells were monolayer-cultured in vitro in RPMI1640 medium with 10% fetal bovine serum, 100 U/mL penicillin and 100 µg/mL streptomycin, in a 37° C., 5% CO2 incubator. Routine digestion with trypsin-EDTA was performed twice a week for passaging. When the cell density was 80%-90% and the number reached the requirement, cells were harvested, counted and inoculated. 0.2 ml (1×10^7 cells) of TMD8 cells (added with matrigel at a volume ratio of 1:1) were subcutaneously inoculated on the right back of each mouse. The mice were administered in groups when the average tumor volume reached about 137 mm^3. Tumor diameters were measured twice a week with vernier calipers. The tumor volume was calculated by the formula V = 0.5 a × b^2, where a and b represent the long and short diameters of the tumor, respectively.

[6] = system: DOHH-2-luc tumor cells in the mouse brain; assay: DOHH-2-Luc intracerebral tumor drug efficacy model test; assay type: in vivo
Procedure: Test Example 8: DOHH-2-Luc Intracerebral Tumor Drug Efficacy Model Test
DOHH-2-luc tumor cells were cultured in vitro with RPMI 1640 medium containing 10% fetal bovine serum and 500 ng/mL puromycin in a 37° C., 5% CO2 incubator. […] Tumor cells in logarithmic growth phase were used for inoculation of tumors in vivo.
2. Inoculation of Tumor Cell and Grouping
After the animal was anesthetized by intramuscular injection of Zoletil, it was fixed on the operating table in a prone position. The skin on the top of the head was disinfected with iodine and 75% alcohol respectively, and the skin was cut about 0.5 cm along the midline of the head to expose the coronal and sagittal lines. Being located about 0.5-1.0 mm above the coronal line and about 2 mm to the right of the sagittal line by using a brain locator, a hole was drilled with a 1 mL syringe needle. The micro-injector was inserted vertically to a depth of 3 mm at the location, slowly (about 1 min) injected with 3 × 10^5 DOHH-2-luc tumor cells /2 µL suspension and kept for 1 min. After pulling out the needle, the needle hole was quickly sealed with bone wax, and the wound was sutured with a stapler. About the 7th day after tumor inoculation, the animals were randomly divided into 5 groups according to the body weight of the animals and the optical signal intensity of the tumor site, with 5 animals in each group.
The mice were imaged 1-2 times a week according to their state using the small animal in vivo imaging system IVIS Lumina III (Perkin Elmer). The bioluminescence imaging (BLI, unit: photons/s) signal intensity at the tumor cell inoculation site of mouse was monitored as the main indicator for evaluating tumor growth and drug efficacy. The specific operation is as follows:
The mice were intraperitoneally injected with D-luciferin (15 mg/mL, 5 µL/g according to the body weight of the experimental animal), and then inhaled anesthetized with 1%-2% isoflurane. 10 min after the injection of D-luciferin, the animals were imaged with IVIS Lumina III. The data were analyzed and processed using Living Image software (Perkin Elmer), and the optical signal intensity in ROI (regions of interest) of each animal was calculated.

[7] = mice; cited from earlier work

Chain of BTK mutation-type C481S kinase (Q06187 whole entry C481S): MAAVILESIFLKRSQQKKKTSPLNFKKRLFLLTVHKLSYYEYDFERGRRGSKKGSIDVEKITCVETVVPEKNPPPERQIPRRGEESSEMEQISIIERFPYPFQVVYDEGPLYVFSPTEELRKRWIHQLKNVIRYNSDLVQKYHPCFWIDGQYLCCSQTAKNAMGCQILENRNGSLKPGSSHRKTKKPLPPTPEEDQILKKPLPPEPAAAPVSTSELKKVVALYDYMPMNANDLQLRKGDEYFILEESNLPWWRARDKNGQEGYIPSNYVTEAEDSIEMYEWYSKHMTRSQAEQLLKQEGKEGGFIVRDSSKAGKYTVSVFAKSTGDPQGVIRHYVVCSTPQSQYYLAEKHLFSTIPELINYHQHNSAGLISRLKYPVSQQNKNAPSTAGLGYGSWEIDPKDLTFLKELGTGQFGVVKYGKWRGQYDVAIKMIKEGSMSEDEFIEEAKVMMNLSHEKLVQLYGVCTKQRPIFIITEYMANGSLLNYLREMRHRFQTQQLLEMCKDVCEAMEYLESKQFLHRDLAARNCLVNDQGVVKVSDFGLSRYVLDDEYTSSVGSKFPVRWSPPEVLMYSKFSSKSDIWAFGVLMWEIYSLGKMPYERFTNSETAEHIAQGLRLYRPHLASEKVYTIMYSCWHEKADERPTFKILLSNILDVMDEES
Chain of BTK wild-type kinase (Q06187 whole entry): as the sequence (Q06187 whole entry C481S) above, with S481C counted along it

Row | pIC50 [1] | pIC50 (BTK wild-type kinase) | %Remaining (60 min) [2] [%] | half-life [2] [h] | Cl [3] [mL/min/kg] | AUC(0-inf) [3] [ng·h/mL] | Cmax [3] [ng/mL] | half-life [3] [h] | %Remaining (60 min) [4] [%] | half-life [4] [h] | SMILES | inhibitory effect against the tumor compared with ARQ-531 and ibrutinib ([5]; same dose of 10 mg/kg, FIG. 1) | inhibitory effect against the tumor compared with Tirabrutinib ([6]; DOHH2 tumor model in the mouse brain, same dose of 30 mg/kg (BID), FIG. 3) | tumor size in the brain by fluorescence image ([6]; DOHH-2-Luc intracerebral model, same dose, FIG. 4) | side effects ([6]; mouse, 30 mg/kg (BID), after 21 days of administration) | inhibitory effect against the tumor compared with Tirabrutinib ([5]; same dose of 20 mg/kg, FIG. 2) | brain permeability rate [7]
1 | > 8.30 | > 8.30 | 77.4 | > 2.42 | 0.8 | 211000 | 25700 | 3.35 | 64.1 | 1.69 | Nc1nccn2c(C34CCC(CO)(CC3)OC4)nc(-c3ccc(C(=O)Nc4cc(C(F)(F)F)ccn4)cc3)c12 [Compound 118] | significantly better inhibitory effect against the tumor | – | – | – | – | –
2 | > 8.30 | 7.70 to 8.30 | 61.2 | 1.58 | 17.42 | 8860 | 1180 | 4.19 | 49 | 1.06 | Nc1nccn2c(C34CCC(CO)(CC3)OC4)nc(-c3ccc(C(F)(F)c4ccccc4)cc3)c12 [Compound 125] | – | significantly better inhibitory effect against the tumor | very good inhibitory effect against the tumor | no side effects | significantly better inhibitory effect against the tumor | –
3 | – | – | 28.8 | 0.53 | 161.3 | 2270 | 445 | 1.72 | 38.2 | 0.663 | Cc1cc(Nc2ncnc3ccc(NC4=NC(C)(C)CO4)cc23)ccc1Oc1ccn2ncnc2c1 [Tucatinib, reference compound] | – | – | – | – | – | less than 5%
